Read-outs that look alike come from different tables or passages of the source.
Experiments:
AMT = assay type: cell-based, rat; conditions: [14C]AEA uptake, RBL-2H3 cells; read-out: AEA transport (IC50)
Experimental: AEA. Cells were incubated with [^14C] AEA for 5 min at 37° C., in the presence or absence of varying concentrations of the inhibitors. Residual [^14C] AEA in the incubation media after extraction with CHCl3/CH3OH 2:1 (by vol.), determined by scintillation counting of the lyophilized organic phase, was used as a measure of the AEA that was taken up by cells.
(§1) CP55940 from whole rat brain membranes.

FAAH = biological target: T1, FAAH (Rattus norvegicus, UniProt P97612); test: Fatty acid amide hydrolase assay, rat brain membranes; assay type: biochemical
T1 construct: membranes prepared from frozen brains of CD rats (Charles River, France); from tissue; host or cells: brain membranes of CD rats
T1 sequence (P97612 1-579): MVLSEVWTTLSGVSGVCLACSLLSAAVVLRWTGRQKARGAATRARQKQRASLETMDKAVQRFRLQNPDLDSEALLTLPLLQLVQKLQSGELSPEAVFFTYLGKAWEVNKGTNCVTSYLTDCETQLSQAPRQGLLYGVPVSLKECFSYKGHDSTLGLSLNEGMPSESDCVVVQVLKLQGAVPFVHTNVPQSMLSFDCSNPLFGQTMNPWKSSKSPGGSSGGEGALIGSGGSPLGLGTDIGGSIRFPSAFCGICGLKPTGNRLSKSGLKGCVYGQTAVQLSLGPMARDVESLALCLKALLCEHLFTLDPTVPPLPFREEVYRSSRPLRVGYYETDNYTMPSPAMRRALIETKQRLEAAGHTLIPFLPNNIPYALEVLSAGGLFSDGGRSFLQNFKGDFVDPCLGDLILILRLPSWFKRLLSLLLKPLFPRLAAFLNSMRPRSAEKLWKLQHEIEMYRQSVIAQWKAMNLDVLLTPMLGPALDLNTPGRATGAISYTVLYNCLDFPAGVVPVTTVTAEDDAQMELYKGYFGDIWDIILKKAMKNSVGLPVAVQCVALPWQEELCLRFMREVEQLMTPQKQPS
Experimental: Fatty acid amide hydrolase assay—The effect of compounds on the enzymatic hydrolysis of AEA was studied using membranes prepared from frozen brains of CD rats (Charles River, France), incubated with the test compounds and [^14C] AEA (9 μM) in 50 mM Tris-HCl, pH 9, for 30 min at 37° C. [^14C] Ethanolamine produced from [^14C] AEA hydrolysis was measured by scintillation counting of the aqueous phase after extraction of the incubation mixture with 2 volumes of CHCl3/CH3OH 2:1 (by vol.).
as §1

mice [1] = test: Mouse tetrad of behavioral tests, i.v. (Example 3); assay type: in vivo; conditions: for Average ED50 / R.I. ED50 / Rectal temp. ED50 / Spontan. activity ED50 / Tail Flick ED50: i.v.; for R.I. ED50 / Rectal temp. ED50 / Spontan. activity ED50 / Tail Flick ED50: mean (range)
Experimental: (§2) The analogs were administered to mice by tail-vein injection and evaluated for their ability to produce hypomotility, hypothermia, and antinociception. These pharmacological measures were determined in the same mouse at a time when maximal activity was present. […] A 10-sec maximum latency was used. Antinociception was expressed as % MPE as described below.
Data Analysis—For production of hypomotility and hypothermia, the data were expressed as a percentage of control activity and change in temperature, respectively. Antinociception was calculated according to the following equation.
% MPE=−((test latency-control latency)/(10s-control latency))×100
At least six animals were treated with each dose-response relationships could be determined for each analog. ED50 values were determined from least-squares unweighted linear regression analysis of log dose-response plots.
The ED50 (milligrams per kilogram, i.v.) does for inhibition of sector crossings (spontaneous activity) in an open field, antinociception (delay in seconds in the tail-flick response), decrease of rectal temperature in degrees Celsius, and induction of time spent in immobility on a ring are shown. Data are means (and ranges) of N>six animals.

mice [2] = test: SR141716A pre-treatment before compounds in spontaneous activity and tail-flick tests in mice; assay type: in vivo, mouse; conditions: for effect of SR141716A pre-treatment on the compound's effects in the tetrad tests: SR141716A 3 mg/kg i.v., 10 min pre-treatment; for Spontaneous Activity (Beam Interuptions), SR14176a + comp / Tail-Flick Latency (% MPE), SR14176a + comp: SR14176A 3 mg/kg i.v. 10 min before
Experimental: as §2
Data are means ±S.E. of n≧six animals.

CB1 receptors [3] = biological target: T2, CB1 receptors (Rattus norvegicus, UniProt P20272); test: Agonist-stimulated [35S]GTPγS binding, rat hippocampal membranes; conditions: for Emax: read-out: GTPγS binding (Emax)
human VR1 receptor = human VR1 receptor (Homo sapiens, UniProt Q8NER1); test: Cytosolic calcium concentration assay in HEK-hVR1 cells (Example 3); conditions: for Emax: read-out: hVR1 efficacy (maximal effect, in parentheses)
CB1 receptors [4] = biological target: T2, CB1 receptors; test: CB1 receptor binding, [3H]CP55940, whole rat brain membranes (Example 3)
[5] = test system: anandamide membrane transporter (AMT); conditions: RBL-2H3 cells; read-out: AMT IC50 (previously reported); cited from earlier work
mice [6] = conditions: cited from earlier work
rat or human VR1 [7] = conditions: cited from earlier work
rat or human VR1 [8] = biological target: T3, rat or human VR1 (UniProt Q8NER1); conditions: Xenopus oocytes or HEK cells over-expressing rat or human VR1; read-out: VR1 EC50 (literature); cited from earlier work
T3 construct: other: Xenopus oocytes or HEK cells over-expressing rat or human VR1

human VR1 receptor, sequence (Q8NER1 whole entry): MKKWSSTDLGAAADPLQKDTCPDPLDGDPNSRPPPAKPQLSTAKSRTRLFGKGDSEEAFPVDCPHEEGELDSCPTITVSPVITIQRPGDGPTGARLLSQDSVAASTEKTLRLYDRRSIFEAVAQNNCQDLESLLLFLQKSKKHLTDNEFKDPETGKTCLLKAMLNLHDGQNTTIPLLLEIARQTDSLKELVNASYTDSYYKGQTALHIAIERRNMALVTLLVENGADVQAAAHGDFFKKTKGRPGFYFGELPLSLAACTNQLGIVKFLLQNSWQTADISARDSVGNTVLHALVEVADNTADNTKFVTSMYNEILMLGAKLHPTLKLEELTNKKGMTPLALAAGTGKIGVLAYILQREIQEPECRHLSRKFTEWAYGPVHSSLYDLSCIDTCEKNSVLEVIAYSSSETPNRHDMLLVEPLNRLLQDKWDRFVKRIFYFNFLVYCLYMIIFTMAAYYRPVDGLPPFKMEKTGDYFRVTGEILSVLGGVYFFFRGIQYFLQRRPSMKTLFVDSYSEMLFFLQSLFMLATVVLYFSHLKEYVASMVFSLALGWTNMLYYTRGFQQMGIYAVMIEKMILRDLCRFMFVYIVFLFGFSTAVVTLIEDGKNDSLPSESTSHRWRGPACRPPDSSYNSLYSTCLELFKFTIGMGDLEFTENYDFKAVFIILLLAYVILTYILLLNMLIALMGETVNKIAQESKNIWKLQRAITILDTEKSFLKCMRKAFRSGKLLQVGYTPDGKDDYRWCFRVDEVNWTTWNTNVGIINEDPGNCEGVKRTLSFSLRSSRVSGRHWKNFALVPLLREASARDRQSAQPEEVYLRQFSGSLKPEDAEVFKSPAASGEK
T2 sequence (P20272 whole entry): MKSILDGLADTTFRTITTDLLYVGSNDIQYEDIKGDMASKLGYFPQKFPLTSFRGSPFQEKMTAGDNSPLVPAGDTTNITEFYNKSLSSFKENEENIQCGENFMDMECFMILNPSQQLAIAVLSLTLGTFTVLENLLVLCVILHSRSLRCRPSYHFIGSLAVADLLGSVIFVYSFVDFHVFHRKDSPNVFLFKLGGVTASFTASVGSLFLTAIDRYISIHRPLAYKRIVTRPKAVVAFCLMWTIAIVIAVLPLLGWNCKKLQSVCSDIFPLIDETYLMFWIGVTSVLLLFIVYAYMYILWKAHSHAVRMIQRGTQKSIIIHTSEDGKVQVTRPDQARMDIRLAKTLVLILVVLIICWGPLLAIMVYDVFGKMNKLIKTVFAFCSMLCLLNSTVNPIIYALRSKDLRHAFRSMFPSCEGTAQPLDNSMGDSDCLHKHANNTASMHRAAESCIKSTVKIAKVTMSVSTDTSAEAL

| SMILES | IC50 (AMT) [nM] | IC50 (FAAH) [nM] | Average ED50 (mice [1]) [milligrams per kilogram] | R.I. ED50 (mice [1]) | Rectal temp. ED50 (mice [1]) | Spontan. activity ED50 (mice [1]) | Tail Flick ED50 (mice [1]) | Emax (CB1 receptors [3]) [%] | EC50 (human VR1 receptor) [nM] | Emax (human VR1 receptor) [%] | Ki (CB1 receptors [4]; read-out: CB1 affinity Ki) [nM] | further results |
| --- | --- | --- | --- | --- | --- | --- | --- | --- | --- | --- | --- | --- |
| CCCCC/C=C\C/C=C\C/C=C\C/C=C\CCCC(=O)NCc1ccc(O)c(Cl)c1 [Compound O-2094] | 19000 ± 2100 | 4500 ± 700 | 1.68 | 1.93 (1.56-2.39) milligrams per kilogram | 3.77 (1.21-11.76) milligrams per kilogram | 0.52 (0.38-0.71) milligrams per kilogram | 0.49 (0.35-0.67) milligrams per kilogram | 15 | 10 | 63.5 | 275 ± 16 | ED50 (mice [1]; Mus musculus, iv, read-out: ED50 values, range over the four parameters of the mouse 'tetrad'): 0.49 to 3.77 mg/kg; effect of SR141716A pre-treatment on the compound's effects in the tetrad tests (mice [2]): not affected; effect of SR141716A pre-treatment on the compound's effects in the tetrad tests (mice [2]; listed as 0-2094): No inhibitory effect; Spontaneous Activity (Beam Interuptions), vehicle + compound (mice [2]; dose 1 mg/kg i.v.): 83 ± 17 Beam Interuptions; Tail-Flick Latency (% MPE), vehicle + compound (mice [2]; dose 1 mg/kg i.v.): 94 ± 5 % MPE; Spontaneous Activity (Beam Interuptions), SR14176a + comp (mice [2]; dose 1 mg/kg i.v.): 116 ± 21 Beam Interuptions; Tail-Flick Latency (% MPE), SR14176a + comp (mice [2]; dose 1 mg/kg i.v.): 100 % MPE; Spontaneous Activity (Beam Interuptions), vehicle + compound (mice [2]; dose 3 mg/kg i.v.): 118 ± 16 Beam Interuptions; Tail-Flick Latency (% MPE), vehicle + compound (mice [2]; dose 3 mg/kg i.v.): 100 % MPE; Spontaneous Activity (Beam Interuptions), SR14176a + comp (mice [2]; dose 3 mg/kg i.v.): 52 ± 19 Beam Interuptions; Tail-Flick Latency (% MPE), SR14176a + comp (mice [2]; dose 3 mg/kg i.v.): 96 ± 4 % MPE; EC50 (CB1 receptors [3]): 131 nM; activity in the GTPγS binding assay (CB1 receptors [3]): low efficacy partial agonist; Ki (CB1 receptors [4]; read-out: CB1 affinity Ki, listed as 0-2094): 274 ± 19 nM |
| CCCCC/C=C\C/C=C\C/C=C\C/C=C\CCCC(=O)N[C@H](C)CO [Met-AEA, (R)-1′-Methyl-2′-hydroxy-ethyl-arachidonamide] |  |  |  |  |  |  |  |  |  |  |  | IC50 [5]: 24500 nM |
| CCCCC/C=C\C/C=C\C/C=C\C/C=C\CCCC(=O)NCc1ccc(O)c(OC)c1 [arvanil, N-[3-methoxy-4-hydroxy-benzyl]-arachidonamide] |  |  |  |  |  |  |  |  |  |  |  | IC50 [5]: 3600 nM; ED50 in the 'tetrad' (mice [6]): 0.085 mg/kg; fold more potent at VR1 than CB1 receptors (rat or human VR1 [7]): approximately 500 fold |
| CCCCC/C=C\C/C=C\C/C=C\C/C=C\CCCC(=O)N(C)Cc1ccc(O)c(OC)c1 [Compound O-1988] | 10000 ± 2100 | > 50000 | 5.98 | 4.08 (2.99-5.56) milligrams per kilogram | 8.74 (5.61-13.60) milligrams per kilogram | 3.11 (1.54-6.29) milligrams per kilogram | 7.98 (5.17-12.34) milligrams per kilogram | 0 | 25 ± 3.9 | 69.1 | 2830 ± 175 | effect of SR141716A pre-treatment on the compound's effects in the tetrad tests (mice [2]): not affected; Spontaneous Activity (Beam Interuptions), vehicle + compound (mice [2]; dose 3 mg/kg i.v.): 766 ± 157 Beam Interuptions; Tail-Flick Latency (% MPE), vehicle + compound (mice [2]; dose 3 mg/kg i.v.): 54 ± 9 % MPE; Spontaneous Activity (Beam Interuptions), SR14176a + comp (mice [2]; dose 3 mg/kg i.v.): 689 ± 68 Beam Interuptions; Tail-Flick Latency (% MPE), SR14176a + comp (mice [2]; dose 3 mg/kg i.v.): 67 ± 15 % MPE; Spontaneous Activity (Beam Interuptions), vehicle + compound (mice [2]; dose 10 mg/kg i.v.): 179 ± 34 Beam Interuptions; Tail-Flick Latency (% MPE), vehicle + compound (mice [2]; dose 10 mg/kg i.v.): 100 % MPE; Spontaneous Activity (Beam Interuptions), SR14176a + comp (mice [2]; dose 10 mg/kg i.v.): 117 ± 17 Beam Interuptions; Tail-Flick Latency (% MPE), SR14176a + comp (mice [2]; dose 10 mg/kg i.v.): 100 % MPE |
| CCCCC/C=C\C/C=C\C/C=C\C/C=C\CCCC(=O)NCCO [AEA, arachidonoylethanolamide] |  |  |  |  |  |  |  |  |  |  |  | EC50 (rat or human VR1 [8]): 1000 to 5000 nM |
| CCCCC/C=C\C/C=C\C/C=C\C/C=C\CCCNC(=S)NCc1ccc(O)c(OC)c1 [Compound O-2095] | 7500 ± 1800 | > 50000 | 0.05 | 0.08 (0.05-0.12) milligrams per kilogram | 0.03 (0.02-0.07) milligrams per kilogram | 0.02 (0.02-0.03) milligrams per kilogram | 0.08 (0.06-0.10) milligrams per kilogram | 0 | 0.4 ± 0.1 | 72.1 | 8630 ± 130 |  |
| CCCCC/C=C\C/C=C\C/C=C\C/C=C\CCCC(=O)NCc1ccc(OC(=O)CCCN2CCOCC2)c(OC)c1 [Compound O-2142] | 30000 ± 4300 | 9100 ± 1700 | 0.17 | 0.17 (0.13-0.22) milligrams per kilogram | 0.11 (0.07-0.17) milligrams per kilogram | 0.20 (0.16-0.24) milligrams per kilogram | 0.19 (0.15-0.25) milligrams per kilogram | 0 | 0.6 ± 0.2 | 86.6 | 483 ± 63 | activity in the GTPγS binding assay (CB1 receptors [3]): inactive |
| CCCCC/C=C\C/C=C\C/C=C\C/C=C\CCCNC(=O)NCc1ccc(O)c(OC)c1 [Compound O-1987] | 19300 ± 3300 | 2000 ± 400 | 0.09 | 0.09 (0.06-0.12) milligrams per kilogram | 0.08 (0.03-0.20) milligrams per kilogram | 0.06 (0.04-0.08) milligrams per kilogram | 0.12 (0.08-0.17) milligrams per kilogram | 0 | 0.7 ± 0.2 | 80.6 | 1720 ± 200 |  |

— patent US20040122089A1, “Novel eicosanoid analgesics” (priority 2001, published 2004)
